Assay results: patent US9096593B2, “Compounds and methods for kinase modulation, and indications therefor” (Plexxikon Inc., priority 2009, dated 2015)
Where two headings read alike, the source gives them in different places.

Key:
Fms kinase = Fms kinase (Homo sapiens (Human), UniProt P07333); assay: Fms kinase biochemical activity assay (AlphaScreen, biotin-(E4Y)10 phosphorylation)
In short: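 Recombinant human Fms phosphorylating 30 nM biotin-(E4Y)10 with 100 μM ATP (1 ng/well enzyme) in Hepes pH 7.5 buffer with Mg2+/Mn2+, 5% DMSO, 20 min at 30 °C. Phosphotyrosine detected by AlphaScreen streptavidin donor/PY20 acceptor beads; IC50 from signal versus compound concentration.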

c-Kit kinase = c-Kit kinase (Homo sapiens (Human), UniProt P10721); assay: c-Kit kinase biochemical activity assay (AlphaScreen, biotin-(E4Y)10 phosphorylation)
CYP1A2 = CYP1A2 (Homo sapiens (Human), UniProt P05177); assay: CYP enzyme inhibition, fluorescent substrate
CYP2C19 = CYP2C19 (Homo sapiens (Human), UniProt P33261); assay: CYP enzyme inhibition, fluorescent substrate
In short: (§1)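 […]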

CYP2C9 = CYP2C9 (Homo sapiens (Human), UniProt P11712); assay: CYP enzyme inhibition, fluorescent substrate
In short: as §1

CYP2D6 = CYP2D6 (Homo sapiens (Human), UniProt P10635); assay: CYP enzyme inhibition, fluorescent substrate
CYP3A4(BFC) = CYP3A4(BFC) (Homo sapiens (Human), UniProt P08684); assay: CYP enzyme inhibition, fluorescent substrate
In short: as §1

CYP3A4(BQ) = CYP3A4(BQ) (Homo sapiens (Human), UniProt P08684); assay: CYP enzyme inhibition, fluorescent substrate
In short: as §1

[1] = read-out: Biochemical activity (IC50 μM) Fms
[2] = 100 μM ATP, read-out: Biochemical (IC50 μM) Fms
[3] = read-out: Cyp IC50 (μM) 3A4(BFC), BFC substrate
[4] = read-out: Cyp IC50 (μM) 3A4(BQ), BQ substrate

Sequence of CYP2C19 (P33261 whole entry): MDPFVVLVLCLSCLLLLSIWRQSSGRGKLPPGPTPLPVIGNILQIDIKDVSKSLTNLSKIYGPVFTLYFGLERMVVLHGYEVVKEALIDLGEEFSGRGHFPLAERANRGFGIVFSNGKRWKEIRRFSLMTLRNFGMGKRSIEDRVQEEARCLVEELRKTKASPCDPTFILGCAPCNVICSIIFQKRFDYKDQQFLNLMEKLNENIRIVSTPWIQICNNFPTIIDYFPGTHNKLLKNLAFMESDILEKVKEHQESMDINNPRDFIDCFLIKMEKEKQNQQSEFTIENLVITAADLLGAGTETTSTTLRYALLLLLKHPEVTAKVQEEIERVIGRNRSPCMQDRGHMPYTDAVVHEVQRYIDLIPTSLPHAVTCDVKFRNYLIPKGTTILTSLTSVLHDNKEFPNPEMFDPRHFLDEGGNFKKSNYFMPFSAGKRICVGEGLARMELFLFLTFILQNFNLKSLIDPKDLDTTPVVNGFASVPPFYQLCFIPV
Sequence of Fms kinase (P07333 20-972): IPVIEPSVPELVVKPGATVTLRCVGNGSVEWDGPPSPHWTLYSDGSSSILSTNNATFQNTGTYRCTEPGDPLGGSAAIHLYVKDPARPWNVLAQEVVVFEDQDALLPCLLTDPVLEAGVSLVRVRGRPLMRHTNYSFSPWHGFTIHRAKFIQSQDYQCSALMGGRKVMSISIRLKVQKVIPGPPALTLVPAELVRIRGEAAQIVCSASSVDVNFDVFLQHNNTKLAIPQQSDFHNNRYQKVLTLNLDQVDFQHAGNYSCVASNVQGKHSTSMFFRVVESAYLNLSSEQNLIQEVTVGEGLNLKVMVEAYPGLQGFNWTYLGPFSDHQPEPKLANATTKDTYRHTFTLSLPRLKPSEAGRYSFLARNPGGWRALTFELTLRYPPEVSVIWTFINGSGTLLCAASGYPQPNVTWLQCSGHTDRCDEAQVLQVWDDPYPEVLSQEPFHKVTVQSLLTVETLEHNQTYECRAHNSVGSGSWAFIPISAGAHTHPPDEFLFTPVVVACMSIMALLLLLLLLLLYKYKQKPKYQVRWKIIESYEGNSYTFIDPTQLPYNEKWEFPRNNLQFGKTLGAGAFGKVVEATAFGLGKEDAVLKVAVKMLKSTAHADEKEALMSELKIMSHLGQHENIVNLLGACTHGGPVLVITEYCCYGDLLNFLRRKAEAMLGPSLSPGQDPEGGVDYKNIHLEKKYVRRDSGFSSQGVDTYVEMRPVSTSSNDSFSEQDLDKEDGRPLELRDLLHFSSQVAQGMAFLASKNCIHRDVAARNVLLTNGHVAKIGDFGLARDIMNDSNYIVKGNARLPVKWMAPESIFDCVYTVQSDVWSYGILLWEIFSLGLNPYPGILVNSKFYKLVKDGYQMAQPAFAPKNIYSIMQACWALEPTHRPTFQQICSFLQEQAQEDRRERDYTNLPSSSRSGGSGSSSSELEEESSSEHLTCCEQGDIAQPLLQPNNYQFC
Sequence of CYP2D6 (P10635 whole entry): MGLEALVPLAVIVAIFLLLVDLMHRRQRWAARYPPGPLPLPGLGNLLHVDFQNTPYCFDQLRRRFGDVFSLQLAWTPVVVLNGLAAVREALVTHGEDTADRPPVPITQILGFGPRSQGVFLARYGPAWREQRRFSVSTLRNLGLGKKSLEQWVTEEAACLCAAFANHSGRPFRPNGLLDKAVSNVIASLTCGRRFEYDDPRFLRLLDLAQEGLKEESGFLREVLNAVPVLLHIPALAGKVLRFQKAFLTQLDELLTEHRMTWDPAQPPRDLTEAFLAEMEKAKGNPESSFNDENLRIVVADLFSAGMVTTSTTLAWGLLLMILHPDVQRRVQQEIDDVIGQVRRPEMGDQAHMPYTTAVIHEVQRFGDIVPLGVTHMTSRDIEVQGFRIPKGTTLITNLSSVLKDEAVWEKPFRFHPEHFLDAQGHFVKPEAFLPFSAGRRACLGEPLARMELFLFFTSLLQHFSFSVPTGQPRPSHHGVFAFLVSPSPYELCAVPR
Sequence of c-Kit kinase (P10721 26-976): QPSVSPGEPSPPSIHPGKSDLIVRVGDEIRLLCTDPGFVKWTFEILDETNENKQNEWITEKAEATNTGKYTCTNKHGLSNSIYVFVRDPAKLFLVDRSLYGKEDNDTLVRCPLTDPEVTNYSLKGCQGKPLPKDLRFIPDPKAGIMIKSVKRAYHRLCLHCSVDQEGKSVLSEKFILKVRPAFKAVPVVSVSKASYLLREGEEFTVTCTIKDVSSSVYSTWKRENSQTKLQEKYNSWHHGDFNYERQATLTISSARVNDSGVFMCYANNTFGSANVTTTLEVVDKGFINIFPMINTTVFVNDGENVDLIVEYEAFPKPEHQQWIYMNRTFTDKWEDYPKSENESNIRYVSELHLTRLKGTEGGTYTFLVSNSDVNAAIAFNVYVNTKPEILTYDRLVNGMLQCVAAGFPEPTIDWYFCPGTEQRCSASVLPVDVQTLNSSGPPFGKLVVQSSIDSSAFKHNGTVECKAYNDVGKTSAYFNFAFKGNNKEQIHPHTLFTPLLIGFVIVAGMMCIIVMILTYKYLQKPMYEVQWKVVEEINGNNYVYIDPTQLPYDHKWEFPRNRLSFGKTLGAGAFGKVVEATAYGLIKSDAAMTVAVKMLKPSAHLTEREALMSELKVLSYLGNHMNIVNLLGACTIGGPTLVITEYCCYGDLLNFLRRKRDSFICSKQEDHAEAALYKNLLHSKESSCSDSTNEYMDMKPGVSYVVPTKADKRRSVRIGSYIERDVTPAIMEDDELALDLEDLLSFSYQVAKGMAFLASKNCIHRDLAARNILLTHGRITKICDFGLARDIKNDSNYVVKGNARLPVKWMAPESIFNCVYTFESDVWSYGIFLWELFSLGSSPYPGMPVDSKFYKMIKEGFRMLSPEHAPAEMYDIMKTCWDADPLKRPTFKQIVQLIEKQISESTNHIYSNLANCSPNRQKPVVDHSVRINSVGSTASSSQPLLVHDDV
Sequence of CYP2C9 (P11712 whole entry): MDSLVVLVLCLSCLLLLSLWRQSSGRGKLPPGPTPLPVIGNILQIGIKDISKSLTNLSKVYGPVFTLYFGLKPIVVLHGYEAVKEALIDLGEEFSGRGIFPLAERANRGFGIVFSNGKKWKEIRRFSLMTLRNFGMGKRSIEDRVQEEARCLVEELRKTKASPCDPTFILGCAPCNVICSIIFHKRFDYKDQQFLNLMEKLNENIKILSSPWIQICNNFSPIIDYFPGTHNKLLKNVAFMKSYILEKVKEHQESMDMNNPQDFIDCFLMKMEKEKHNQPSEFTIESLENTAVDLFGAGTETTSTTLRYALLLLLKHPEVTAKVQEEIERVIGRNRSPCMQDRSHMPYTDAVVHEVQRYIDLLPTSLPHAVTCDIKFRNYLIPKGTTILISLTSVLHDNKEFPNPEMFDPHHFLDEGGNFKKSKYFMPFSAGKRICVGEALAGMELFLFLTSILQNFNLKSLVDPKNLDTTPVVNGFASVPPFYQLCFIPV
Sequence of CYP1A2 (P05177 whole entry): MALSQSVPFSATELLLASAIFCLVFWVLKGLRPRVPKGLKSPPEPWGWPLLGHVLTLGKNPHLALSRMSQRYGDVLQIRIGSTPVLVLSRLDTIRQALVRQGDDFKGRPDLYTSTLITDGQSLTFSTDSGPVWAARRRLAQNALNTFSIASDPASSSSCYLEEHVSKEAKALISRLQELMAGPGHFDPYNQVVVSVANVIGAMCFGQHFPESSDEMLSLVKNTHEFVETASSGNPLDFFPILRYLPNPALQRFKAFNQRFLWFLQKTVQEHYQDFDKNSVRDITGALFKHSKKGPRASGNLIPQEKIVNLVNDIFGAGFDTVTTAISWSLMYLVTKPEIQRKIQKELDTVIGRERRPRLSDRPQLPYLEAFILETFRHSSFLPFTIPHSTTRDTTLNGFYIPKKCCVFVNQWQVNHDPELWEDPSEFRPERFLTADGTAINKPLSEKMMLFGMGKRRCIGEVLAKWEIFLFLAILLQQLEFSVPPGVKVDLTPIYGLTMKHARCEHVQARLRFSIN
Sequence of CYP3A4(BQ) (P08684 whole entry): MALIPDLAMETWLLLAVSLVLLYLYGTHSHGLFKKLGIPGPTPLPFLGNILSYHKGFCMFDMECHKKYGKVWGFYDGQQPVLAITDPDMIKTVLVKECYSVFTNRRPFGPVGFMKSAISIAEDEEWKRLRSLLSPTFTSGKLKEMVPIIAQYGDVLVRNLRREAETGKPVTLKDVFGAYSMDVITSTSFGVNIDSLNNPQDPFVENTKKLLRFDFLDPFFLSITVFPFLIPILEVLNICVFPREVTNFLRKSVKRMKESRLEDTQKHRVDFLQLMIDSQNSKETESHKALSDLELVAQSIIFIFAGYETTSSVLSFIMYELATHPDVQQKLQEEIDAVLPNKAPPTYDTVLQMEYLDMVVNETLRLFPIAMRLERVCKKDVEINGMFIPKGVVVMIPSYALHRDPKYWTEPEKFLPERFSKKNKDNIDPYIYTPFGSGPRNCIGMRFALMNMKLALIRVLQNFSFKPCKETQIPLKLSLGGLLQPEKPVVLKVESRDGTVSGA
Sequence of CYP3A4(BFC) (P08684 whole entry): as above

SMILES | Biochemical activity selectivity (Kit IC50/Fms IC50) (Fms kinase) | IC50 (Fms kinase; [1]) [µM] | IC50 (c-Kit kinase) [µM] | IC50 (CYP1A2; human, 15 min) [µM] | IC50 (CYP2C19; read-out: Cyp IC50 (μM) 2C19) [µM] | IC50 (CYP2C9) [µM] | IC50 (CYP2D6; read-out: Cyp IC50 (μM) 2D6) [µM] | IC50 (CYP3A4(BFC)) [µM] | IC50 (CYP3A4(BQ)) [µM] | IC50 (Fms kinase; [2]) [µM] | IC50 (CYP1A2) [µM] | IC50 (CYP2C9; read-out: Cyp IC50 (μM) 2C9) [µM] | IC50 (CYP3A4(BFC); [3]) [µM] | IC50 (CYP3A4(BQ); [4]) [µM] | IC50 (CYP1A2; read-out: Cyp IC50 (μM) 1A2) [µM] | IC50 (CYP2C19) [µM] | IC50 (CYP2D6) [µM] | IC50 (CYP2C9; human, CYP2C9 enzyme (BD Biosciences), 45 min) [µM]
Fc1cncc(CNc2ccc(Cc3c[nH]c4ncc(Cl)cc34)c(F)n2)c1 [Compound P-2001, [5-(5-Chloro-1H-pyrrolo[2,3-b]pyridin-3-ylmethyl)-6-fluoro-pyridin-2-yl]-(5-fluoro-pyridin-3-ylmethyl)-amine] | >20 | < 0.1 | > 0.1 | > 10 | < 5 | 5 to 10 | > 10 | 5 to 10 | 5 to 10 | – | – | – | – | – | – | – | – | –
Clc1cnc2[nH]cc(Cc3ccc(NCc4ccc(Cl)nc4)nc3)c2c1 [Compound P-2003] | <20 | < 0.1 | < 0.1 | – | 5 to 10 | – | > 10 | – | – | < 0.1 | > 10 | < 5 | 5 to 10 | > 10 | – | – | – | –
Fc1ccc(CNc2ccc(Cc3c[nH]c4ncc(Cl)cc34)cn2)cn1 [Compound P-2004, [5-(5-chloro-1H-pyrrolo[2,3-b]pyridin-3-ylmethyl)-pyridin-2-yl]-(6-fluoro-pyridin-3-ylmethyl)-amine] | <20 | < 0.1 | < 0.1 | – | – | – | – | – | 5 to 10 | < 0.1 | – | < 5 | < 5 | – | > 10 | 5 to 10 | 5 to 10 | –
Cc1cnc2[nH]cc(Cc3ccc(NCc4ccc(C(F)(F)F)nc4)nc3)c2c1 [Compound P-2019, [5-(5-Methyl-1H-pyrrolo[2,3-b]pyridin-3-ylmethyl)-pyridin-2-yl]-(6-trifluoromethyl-pyridin-3-ylmethyl)-amine] | <20 | < 0.1 | < 0.1 | > 10 | – | – | < 5 | – | – | < 0.1 | – | – | < 5 | > 10 | – | 5 to 10 | – | < 5
COc1ccc(CNc2ccc(Cc3c[nH]c4ncc(C)cc34)c(F)n2)cn1 [Compound P-2029, [6-Fluoro-5-(5-methyl-1H-pyrrolo[2,3-b]pyridin-3-ylmethyl)-pyridin-2-yl]-(6-methoxy-pyridin-3-ylmethyl)-amine] | >20 | < 0.1 | > 0.1 | > 10 | < 5 | – | > 10 | 5 to 10 | 5 to 10 | < 0.1 | – | < 5 | – | – | – | – | – | –
COc1cnc2[nH]cc(Cc3ccc(NCc4ccc(OC)nc4)nc3F)c2c1 [Compound P-2030, [6-Fluoro-5-(5-methoxy-1H-pyrrolo[2,3-b]pyridin-3-ylmethyl)-pyridin-2-yl]-(6-methoxy-pyridin-3-ylmethyl)-amine] | <20 | < 0.1 | > 0.1 | > 10 | < 5 | – | > 10 | 5 to 10 | – | < 0.1 | – | < 5 | – | > 10 | – | – | – | –
COc1ccnc2[nH]cc(Cc3ccc(NCc4ccc(Cl)cc4)nc3F)c12 [Compound P-2037, (4-Chloro-benzyl)-[6-fluoro-5-(4-methoxy-1H-pyrrolo[2,3-b]pyridin-3-ylmethyl)-pyridin-2-yl]-amine] | <20 | < 0.1 | > 0.1 | > 10 | < 5 | – | > 10 | 5 to 10 | – | < 0.1 | – | < 5 | – | > 10 | – | – | – | –
COc1ccc(CNc2ncc(Cc3c[nH]c4ncc(C)cc34)cn2)cn1 [Compound P-2057, (6-Methoxy-pyridin-3-ylmethyl)-[5-(5-methyl-1H-pyrrolo[2,3-b]pyridin-3-ylmethyl)-pyrimidin-2-yl]-amine] | <20 | < 0.1 | > 0.1 | > 10 | – | 5 to 10 | > 10 | – | – | < 0.1 | – | – | > 10 | > 10 | – | 5 to 10 | – | –
